# Measurements reported in patent US8518958B2, “Pyrido [2,3-D] pyrimidines and their use as kinase inhibitors” (Forma Therapeutics, Inc., priority 2006, dated 2013).
# Where two headings read alike, the source gives them in different places.
# How the values were obtained:
# [1] = molecular target: B-Raf delta1-415 (Homo sapiens, UniProt P15056); assay: B-Raf kinase inhibition (MAPH filter plate, 33P-ATP, MEK1 substrate); details: read-out: Biochemical IC50 B-Raf
# Description: We characterized the in vitro inhibitory activity against protein kinases of compounds of the present invention by determining their IC50 values (see Table 2).
# Kinase: B-Raf delta1-415 (e.g., Upstate Cat. No. 14-530)
# Reaction Temperature: room temperature
# Assay Plate: 96 well U bottom plate (Greiner, 650161)
# MultiScreen-PH Plate: 96 well MAPH Filter Plates (Millipore, MAPHNOB50)
# Filter Washing Solution: 0.75% H3PO4
# Szintilation Liquid: Supermix Liquid Szintillator (PerkinElmer, 1200-439)
# Negative Control (C−): 100 mM EDTA, no Inhibitor
# Positive Control (C+): no Inhibitor
# Reaction Buffer: 20 mM Mops, pH 7.0 • 10 mM MgCl2 • 0.4 mM MnCl2 • 100 mM NaCl • 1 mM DTT • 0.01% NP40
# Final Assay Concentrations:
# Kinase: Kinase conc. yielding 50% substrate turnover as determined in titration experiment.
# Adenosine 5′-[γ-^33P]triphosphate: 12.5 μCi/ml (Amersham Biosciences, BF1000)
# Pipetting Sequence: • 1) Add 10 μl 4-fold concentrated substrate in 3-fold concentrated reaction buffer to each well of assay plate • 2) Add 10 μl 4-fold concentrated inhibitor in 4% DMSO in H2O to each well except to C− and C+ wells (starting point: final inhibitor concentration 10 μM; IC50 determination based on dilution series) • 3) Add 10 μl 4% DMSO in H2O to C− and C+ wells • 4) Add 10 μl 500 mM EDTA in H2O to C− wells • 5) Add 10 μl 50 μCi/ml adenosine 5′-[γ-^33P]triphosphate in H2O+4-fold cold ATP to each well • 6) Add 10 μl 4-fold concentrated kinase in reaction buffer to each well • 7) Incubate 1 hr at room temperature • 8) Add 10 μl 50 mM EDTA in H2O to each well except to C− wells • 9) Prepare MAPH plates by adding 200 μl 0.75% H3PO4 to each well • 10) Exhaust 0.75% H3PO4 using Millipore vacuum station • 11) Add 60 μl 0.75% H3PO4 to each well of MAPH filter plate • 12) Transfer 30 μl sample per well from assay plate to corresponding well of MAPH filter plate • 13) Incubate 30 min at room temperature • 14) Wash each well of MAPH filter plates 3× with 200 μl 0.75% H3PO4 using Millipore vacuum station • 15) Add 20 μl scintillation liquid to each well of MAPH filter plate • 16) Seal MAPH filter plate • 17) Store MAPH filter plate 30 min in darkness • 18) Quantify radioactivity using scintillation counter (MicroBeta, Perkin-Elmer)
# [2] = system: HT-29 tumor cells; assay: Anti-proliferative activity, SRB assay; format: cell-based, human; details: 72 hours exposure, read-out: CELLULAR IC50 HT-29
# Procedure: We observed the surprising finding that compounds of the invention were useful in inhibiting proliferation of HT-29 tumor cells (see Table 3).
# 3,000-15,000 cells/well were exposed to the test compounds at various concentrations appropriate to determine an IC50, for 72 hours, and cell proliferation was measured using the SRB assay according to Shekan et al (J Natl Cancer Inst (1990) 82, 1107-112) in order to estimate the IC50 values shown in Table 3. Briefly, cells were plated in 96 well dishes 24 hours prior to compound addition. The assay was terminated with the addition of cold TCA to a final concentration of 10% and the plates were incubated for one hour at 4° C. The plates were then washed 5 times with water and 100 μl of a Sulforhodamine B solution (4%) was added to each well. The plate was then incubated for 10 minutes at room temperature before removal of unbound dye by washing with 1% acetic acid. The bound dye was solubilized with 10 mM Trizma base and the absorbance read at OD570. Inhibitory activity of the compounds was calculated as % inhibition of cell proliferation compared to cells treated with the solvent (DMSO).
# Chain of B-Raf delta1-415 (P15056 416-766): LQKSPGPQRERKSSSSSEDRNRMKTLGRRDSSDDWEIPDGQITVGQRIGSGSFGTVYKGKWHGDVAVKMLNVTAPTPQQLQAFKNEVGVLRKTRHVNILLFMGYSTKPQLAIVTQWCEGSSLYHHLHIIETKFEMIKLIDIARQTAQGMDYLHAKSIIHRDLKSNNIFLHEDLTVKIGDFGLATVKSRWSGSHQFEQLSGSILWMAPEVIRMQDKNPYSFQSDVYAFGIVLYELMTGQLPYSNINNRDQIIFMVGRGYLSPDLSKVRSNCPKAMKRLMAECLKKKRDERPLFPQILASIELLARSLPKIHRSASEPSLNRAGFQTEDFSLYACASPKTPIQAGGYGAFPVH
SMILES,IC50 [1],"IC50 ([2]; Homo sapiens, HT-29, 72 h)",IC50 [2]
COCCOn1c(=O)c(-c2c(F)cccc2Cl)cc2cnc(Nc3ccc(N4CCOCC4)cc3)nc21 [Compound 121],< 0.1 µM,< 1 µM,
CCOn1c(=O)c(-c2c(F)cccc2Cl)cc2cnc(Nc3ccc(N4CCOCC4)cc3)nc21 [Compound 128],< 0.1 µM,< 1 µM,
O=c1c(-c2c(F)cccc2Cl)cc2cnc(Nc3ccc(N4CCOCC4)cc3)nc2n1OCC1CC1 [Compound 129],< 0.1 µM,< 1 µM,
O=c1c(-c2c(F)cccc2Cl)cc2cnc(Nc3ccc(N4CCOCC4)cc3)nc2n1OCc1cccnc1 [Compound 132],< 0.1 µM,< 1 µM,
COn1c(=O)c(-c2c(F)cccc2Cl)cc2cnc(Nc3ccc(N4CCOCC4)cc3)nc21 [Compound 136],< 0.1 µM,< 1 µM,
"COn1c(=O)c(-c2c(Cl)cccc2Cl)cc2cnc(Nc3cc(C(=O)N4CCOCC4)n(C)c3)nc21 [Compound 137, 6-(2,6-Dichlorophenyl)-8-methoxy-2-(5-morpholinocarbonyl-1-methyl-pyrrol-3-yl)-amino-pyrido[2,3-d]pyrimidin-7-one]",< 0.1 µM,< 1 µM,
"COn1c(=O)c(-c2c(Cl)cccc2Cl)cc2cnc(Nc3nc(C(=O)N(C)CCO)cs3)nc21 [Compound 138, 6-(2,6-Dichlorophenyl)-8-methoxy-2-(4-N-(2-hydroxyethyl)-N-methyl-aminocarbonyl-thiazol-2-yl)-amino-pyrido[2,3-d]pyrimidin-7-one]",< 1 µM,,< 10 µM
"COn1c(=O)c(-c2c(Cl)cccc2Cl)cc2cnc(Nc3cc(C(=O)N(C)CCOC(=O)C(C)(C)C)n(C)c3)nc21 [Compound 140, 6-(2,6-Dichlorophenyl)-8-methoxy-2-(5-N-(2-(2,2-dimethylpropanoyl)oxyethyl)-N-methyl-aminocarbonyl-1-methyl-pyrrol-3-yl)-amino-pyrido[2,3-d]pyrimidin-7-one]",< 0.5 µM,< 1 µM,
COn1c(=O)c(-c2c(Cl)cccc2Cl)cc2cnc(Nc3cc(C(=O)N(C)CCOC(=O)c4ccccc4)n(C)c3)nc21 [Compound 141],< 0.5 µM,< 1 µM,
"COn1c(=O)c(-c2c(Cl)cccc2Cl)cc2cnc(Nc3csc(C(=O)N4CCN(C)CC4)c3)nc21 [Compound 142, 6-(2,6-Dichlorophenyl)-8-methoxy-2-(5-(4-methylpiperazino)carbonyl-thiophen-3-yl)-amino-pyrido[2,3-d]pyrimidin-7-one]",< 0.1 µM,< 1 µM,
O=c1c(-c2c(F)cccc2Cl)cc2cnc(Nc3ccc(N4CCOCC4)cc3)nc2n1OCC1CCOCC1 [Compound 143],< 0.1 µM,< 1 µM,

# More lines, now with the values ahead:
IC50 [1],"IC50 ([2]; Homo sapiens, HT-29, 72 h)",IC50 [2],SMILES
< 0.1 µM,< 1 µM,,"COn1c(=O)c(-c2c(Cl)cccc2Cl)cc2cnc(Nc3ccc(CNS(C)(=O)=O)cc3)nc21 [Compound 120, 6-(2,6-Dichlorophenyl)-8-methoxy-2-(4-methylsulfonylaminomethyl-phenyl)-amino-pyrido[2,3-d]pyrimidin-7-one]"
< 0.5 µM,< 1 µM,,"CCNS(=O)(=O)c1cccc(Nc2ncc3cc(-c4c(Cl)cccc4Cl)c(=O)n(OC)c3n2)c1 [Compound 122, 6-(2,6-Dichlorophenyl)-2-(3-ethylaminosulfonylphenyl)-amino-8-methoxy-pyrido[2,3-d]pyrimidin-7-one]"
> 1 µM,< 10 µM,,"CCN(CC)S(=O)(=O)c1cccc(Nc2ncc3cc(-c4c(Cl)cccc4Cl)c(=O)n(OC)c3n2)c1 [Compound 123, 6-(2,6-Dichlorophenyl)-2-(3-diethylaminosulfonylphenyl)-amino-8-methoxy-pyrido[2,3-d]pyrimidin-7-one]"
< 0.5 µM,< 1 µM,,"COn1c(=O)c(-c2c(Cl)cccc2Cl)cc2cnc(Nc3ccc(Cn4cccn4)cc3)nc21 [Compound 124, 6-(2,6-dichlorophenyl)-8-methoxy-2-(4-(pyrazol-1-ylmethyl)phenyl)-amino-pyrido[2,3-d]pyrimidin-7-one]"
< 0.1 µM,< 1 µM,,"CNS(=O)(=O)Cc1ccc(Nc2ncc3cc(-c4c(Cl)cccc4Cl)c(=O)n(OC)c3n2)cc1 [Compound 125, 6-(2,6-dichlorophenyl)-8-methoxy-2-(4-(methylaminosulfonylmethyl)phenyl)-amino-pyrido[2,3-d]pyrimidin-7-one]"
< 0.1 µM,< 1 µM,,"COn1c(=O)c(-c2c(Cl)cccc2Cl)cc2cnc(Nc3cccc(S(=O)(=O)NCCO)c3)nc21 [Compound 126, 6-(2,6-Dichlorophenyl)-2-(3-(2-hydroxyethyl)aminosulfonyl-phenyl)-amino-8-methoxy-pyrido[2,3-d]pyrimidin-7-one]"
< 0.5 µM,< 1 µM,,"COn1c(=O)c(-c2c(Cl)cccc2Cl)cc2cnc(Nc3cccc(S(=O)(=O)N4CCOCC4)c3)nc21 [Compound 127, 6-(2,6-Dichlorophenyl)-2-(3-morpholinosulfonylphenyl)-amino-8-methoxy-pyrido[2,3-d]pyrimidin-7-one]"
< 0.5 µM,> 10 µM,,"COn1c(=O)c(-c2c(Cl)cccc2Cl)cc2cnc(Nc3cccc(-c4nnn[nH]4)c3)nc21 [Compound 130, 6-(2,6-Dichlorophenyl)-8-methoxy-2-(3-tetrazol-5-ylphenyl)-amino-pyrido[2,3-d]pyrimidin-7-one]"
< 0.1 µM,< 1 µM,,"CNC(=O)c1cccc(Nc2ncc3cc(-c4c(Cl)cccc4Cl)c(=O)n(OC)c3n2)c1 [Compound 131, 6-(2,6-Dichlorophenyl)-8-methoxy-2-(3-methylaminocarbonylphenyl)-amino-pyrido[2,3-d]pyrimidin-7-one]"
> 1 µM,< 10 µM,,"COn1c(=O)c(-c2c(Cl)cccc2Cl)cc2cnc(Nc3ccc(C(F)(F)F)c(Cl)c3)nc21 [Compound 133, 2-(3-Chloro-4-trifluoromethylphenyl)-amino-6-(2,6-dichlorophenyl)-8-methoxy-pyrido[2,3-d]pyrimidin-7-one]"
< 0.1 µM,< 1 µM,,"COn1c(=O)c(-c2c(Cl)cccc2Cl)cc2cnc(Nc3cccc(Cn4cncn4)c3)nc21 [Compound 134, 6-(2,6-Dichlorophenyl)-8-methoxy-2-(3-(1,2,4-triazol-1-ylmethyl)phenyl)-amino-pyrido[2,3-d]pyrimidin-7-one]"
< 0.5 µM,< 10 µM,,"COn1c(=O)c(-c2c(Cl)cccc2Cl)cc2cnc(Nc3ccncn3)nc21 [Compound 135, 6-(2,6-Dichlorophenyl)-8-methoxy-2-(pyrimidin-4-yl)-amino-pyrido[2,3-d]pyrimidin-7-one]"
< 0.1 µM,< 10 µM,,"COn1c(=O)c(-c2c(Cl)cccc2Cl)cc2cnc(Nc3ccc(CO)cc3)nc21 [Compound 144, 6-(2,6-Dichlorophenyl)-2-(4-hydroxymethylphenyl)-amino-8-methoxy-pyrido[2,3-d]pyrimidin-7-one]"
< 10 µM,< 10 µM,,"COn1c(=O)c(-c2c(Cl)cccc2Cl)cc2cnc(NCc3ccccc3)nc21 [Compound 145, 6-(2,6-Dichlorophenyl)-8-methoxy-2-phenylmethylamino-pyrido[2,3-d]pyrimidin-7-one]"
< 0.5 µM,< 10 µM,,"COn1c(=O)c(-c2c(Cl)cccc2Cl)cc2cnc(NCc3cccnc3)nc21 [Compound 146, 6-(2,6-Dichlorophenyl)-8-methoxy-2-pyrid-3-ylmethylamino-pyrido[2,3-d]pyrimidin-7-one]"
